A word on the IC50: it is the concentration that inhibits the measured activity by half. Lower therefore signals greater potency.

The values that follow come from ChEMBL document CHEMBL1159079, “Pharmacophore modeling and virtual screening for designing potential 5-lipoxygenase inhibitors” (Bioorg Med Chem Lett, 2010).

The nature of the experiment: Inhibition of potato tuber 5LOX by polarographic method. Further details: species or system Solanum tuberosum.
Consider `CC1(C)Cc2c(-c3ccccc3)c(-c3ccc([N+](=O)[O-])cc3)c(CC(=O)O)n2C1`, for which half-maximal inhibition (IC50) required 1500 nM.

Turning to `CS(=O)(=O)Nc1ccc(Oc2ccc(F)cc2)s1`, the IC50 turned out to be 130 nM.

`COc1cccc(N2CC(C)NC(=O)N2)n1` (centres undefined) returned an IC50 of 5500 nM.

`CC1(C)CCC[C@@]2(C)C1CCC(C=O)[C@@H]2CC=C(C=O)C=O` (some centres undefined) registered an IC50 of 7500 nM.

`CC1Cc2c(CCc3ccc(-c4ccccc4)cn3)ccc3c2C(S1)C(CC(C)(C)Cc1nnn[nH]1)N3Cc1ccc(Cl)cc1` (centres undefined): 16 nM corresponded to half-maximal inhibition (IC50).

For `O=C1NCCN(c2ccoc2-c2ccccc2)N1`, half-maximal inhibition (IC50) was put at 4900 nM.

The molecule `COc1ccc(-c2ssc(=S)c2-c2ccc(OC)cc2)cc1` registered an IC50 of 10000 nM.

On to `COc1ccc(-c2sncc2-c2ccc(C)cc2)cc1`, for which the half-maximal inhibitory concentration (IC50) is 8000 nM.

`NC(=O)C1(c2cccc(Sc3ccc(-n4cccc4)cc3)c2)CCOCC1`: the concentration for half-maximal inhibition (IC50) amounted to 270 nM.

Consider `C#CCCCC(=O)c1cc(C(C)(C)C)c(O)c(C(C)(C)C)c1` [TEBUFELONE], for which the 50% inhibitory concentration (IC50) worked out at 3000 nM.

`NS(=O)(=O)c1ccccc1C#Cc1ccc(=O)n(O)c1` showed an IC50 of 10000 nM.

In turn, `Cc1cc(C)cc(N2CCNC(=O)N2)c1` had a half-maximal inhibitory concentration (IC50) of 12000 nM.

In the case of `CCCC(=O)c1cc(C(C)(C)C)c2c(c1)C(C)(C)CO2`, the half-inhibitory concentration (IC50) was found to be 8500 nM.

On to `CS(=O)(=O)c1ccc(C#CC(=O)c2ccccc2)cc1`, for which the IC50 amounted to 1000 nM.

`Nc1cccc(N2CCNC(=O)N2)c1` showed an IC50 of 178000 nM.

Consider `CC(C)(C)c1cc(C(=O)CCCC#N)cc2c1OCC2(C)C`, for which the IC50 is 6000 nM.

`CC1Cc2c(OCc3ccc(-c4ccccc4)cn3)ccc3c2C(S1)C(CC(C)(C)CC(=O)NS(C)(=O)=O)N3Cc1ccc(Cl)cc1` (centres undefined) gave an IC50 of 36 nM.

In turn, `CCOC(=O)c1ccc2oc(/C=C/C=C\c3ccc(O)c(O)c3)nc2c1` came in with a half-maximal inhibitory concentration (IC50) of 20 nM.

The molecule `NS(=O)(=O)c1ccc(N2N=C(C(F)(F)F)CC2c2c[nH]c3ccccc23)cc1` (centres undefined) returned a half-maximal inhibitory concentration (IC50) of 41000 nM.

`COC1(c2cccc(COc3ccc4c(-c5ccccc5)c5c(cc4c3)C(=O)OC5)c2)CCOCC1`: half-maximal inhibition (IC50) was put at 14 nM.

The molecule `O=C1NCCN(c2cccnc2-c2ccccc2)N1` registered an IC50 of 30000 nM.

In turn, `COc1ccc(-c2cnsc2-c2ccc(OC)cc2)cc1` came in with an IC50 of 20000 nM.

Molecule `CCCCC1CN(c2ccccc2)NC(=O)N1` (centres undefined) yielded a 50% inhibitory concentration (IC50) of 1500 nM.

With `O=C(CC1=CC(Cc2ccc(Cl)c(Cl)c2)c2ccccc21)N1CCOCC1` (centres undefined), the half-inhibitory concentration (IC50) worked out at 870 nM.

As for `COc1cc(/C=C\C=C\c2nc3ccccc3o2)ccc1O`, half-maximal inhibition (IC50) required 330 nM.

Turning to `CC1(C)Cc2c(-c3ccccc3)c(-c3ccc(Cl)cc3)c(CC(=O)O)n2C1` [LICOFELONE], the IC50 turned out to be 180 nM.

`O=C1NCCN(c2ncccc2-c2cccs2)N1` registered an IC50 of 8200 nM.

Molecule `O=C1NCCN(c2cccc(F)c2)N1` came in with an IC50 of 19000 nM.

`CS(=O)(=O)c1ccc(C#CC(=O)c2cccc(O)c2)cc1` had an IC50 of 300 nM.

In turn, `CCOC(=O)c1c(Cc2cccc(Cl)c2)[nH]c2ccc(O)cc12` registered an IC50 of 2000 nM.

`Cc1nccn1-c1ccc(Sc2cccc(C3(C(N)=O)CCOCC3)c2)cc1`: the IC50 turned out to be 140 nM.

`COc1cc(/C=C\C=C\c2nc3ncccc3o2)ccc1O`: the half-inhibitory concentration (IC50) is 370 nM.

With `CC(C)(C)c1cc(C(=O)CCCC2CC2)cc2c1OCCC2(C)C`, half-maximal inhibition (IC50) required 8000 nM.

Regarding `COC1(c2cc(F)cc(OCc3cc(-c4ccccc4)n(-c4ccc(S(C)(=O)=O)cc4)n3)c2)CCOCC1`, the IC50 came out at 3 nM.

As to `CC(C)(C)OC(=O)N1CCN(C(=O)CCCC2=CCc3ccccc32)CC1`, the midpoint of inhibition, the IC50, lay at 740 nM.

As to `CS(=O)(=O)c1cccc(C#Cc2ccc(=O)n(C(F)F)c2)c1`, the midpoint of inhibition, the IC50, lay at 3200 nM.

The molecule `Cc1ccc(-c2cc(C(F)(F)F)nn2-c2ccc(S(N)(=O)=O)cc2)cc1` [CELECOXIB] gave an IC50 of 10000 nM.

With `O=C(O)Cc1c(-c2ccc(Cl)cc2)c(-c2ccccc2)c2n1CCC2`, the midpoint of inhibition, the IC50, lay at 1600 nM.

With `COc1ccc2c(c1)c(CCN(O)C(N)=O)c(C)n2C(=O)c1ccc(Cl)cc1`, the IC50 turned out to be 400 nM.

On to `COc1cc(O)cc(/C=C/C=C/C(=O)NCCN2CCC(OC(c3ccccc3)c3ccccc3)CC2)c1`, for which the IC50 stood at 150 nM.

The molecule `NS(=O)(=O)c1ccc(-n2nc(C(F)(F)F)cc2-c2ccn(O)c(=O)c2)cc1` gave an IC50 of 4900 nM.

Consider `CS(=O)(=O)c1ccccc1C#Cc1ccc(=O)n(C(F)F)c1`, for which half-maximal inhibition (IC50) was put at 3400 nM.

Molecule `Cc1ccc(-c2c(-c3ccc(S(C)(=O)=O)cc3)ssc2=S)cc1` had a half-maximal inhibitory concentration (IC50) of 9000 nM.

In turn, `O=C(CCCC1=CCc2ccccc21)N1CCOCC1` registered a concentration for half-maximal inhibition (IC50) of 2060 nM.

For the molecule `CC(=O)Nc1ccc(/C(=C/c2ccc(S(C)(=O)=O)cc2)C(=O)O)cc1`, the half-maximal inhibitory concentration (IC50) is 110 nM.

As for `CC1Cc2c(OCc3ccc(-c4ccccc4)cn3)ccc3c2c(c(CCOc2ccccc2CC(=O)O)n3Cc2cccc(F)c2)S1` (centres undefined), the IC50 came out at 23 nM.

`CC(C)(C)c1cc(Cc2cccs2)cc2c1OCC2(C)C` displayed an IC50 of 68000 nM.

In turn, `COc1cc(/C=C\C=C\c2nc3ccc(CO)cc3o2)ccc1O` registered an IC50 of 300 nM.

`N#Cc1cc(-c2ccoc2)c2ccc(OCc3cccc(C4(O)CCOCC4)n3)cc2c1` came in with an IC50 of 15 nM.

With `NS(=O)(=O)c1ccc(C#Cc2ccc(=O)n(C(F)F)c2)cc1`, half-maximal inhibition (IC50) required 3500 nM.

`CC1=C(CCCC(=O)N2CCOCC2)c2cc(Cl)ccc2C1Cc1ccccc1` (centres undefined) had an IC50 of 950 nM.

`NS(=O)(=O)c1cccc(C#Cc2ccc(=O)n(O)c2)c1` gave an IC50 of 15000 nM.

The molecule `COC(=O)c1c(Nc2cccc(Cl)c2)[nH]c2ccc(O)cc12` showed a half-maximal inhibitory concentration (IC50) of 300 nM.

In turn, `CC(C)(C)c1cc(C(=O)CCCC2CC2)cc2c1OCC2(C)C` came in with an IC50 of 68000 nM.

The molecule `COC1(c2cccc(OCc3ccc4ccccc4c3)c2)CCOCC1` displayed an IC50 of 10 nM.

For the molecule `CSc1cccc(N2CCNC(=O)N2)c1`, the IC50 was determined as 14000 nM.

With `FC(F)(F)c1cccc(Nc2ccccc2-c2n[nH]c(=S)s2)c1`, the concentration for half-maximal inhibition (IC50) was 770 nM.

In the case of `CS(=O)(=O)c1ccc(-n2nc(C(F)(F)F)cc2-c2ccn(O)c(=O)c2)cc1`, it took 350 nM to reach half-maximal inhibition (IC50).

For the molecule `CCN1CC/C(=C/c2cc(C(C)(C)C)c(O)c(C(C)(C)C)c2)S1(=O)=O`, the IC50 was determined as 2500 nM.

Turning to `O=C1NCCN(c2ccccn2)N1`, the 50% inhibitory concentration (IC50) was found to be 26000 nM.

In turn, `COCCOCC1CN(c2ccccc2)NC(=O)N1` (centres undefined) gave a 50% inhibitory concentration (IC50) of 14000 nM.

`FC(F)(F)c1cccc(Nc2ccccc2-c2n[nH]c(=S)o2)c1` displayed a 50% inhibitory concentration (IC50) of 770 nM.

`CCOC(=O)c1c(Cc2cccc(Cl)c2)[nH]c2cc(-c3ccccc3)c(O)cc12` displayed a half-maximal inhibitory concentration (IC50) of 1200 nM.

Molecule `CC1CN(c2cccc(Cl)c2)NC(=O)N1` (centres undefined) returned a concentration for half-maximal inhibition (IC50) of 2700 nM.

Molecule `O=C1NCCN(c2ccccc2)N1` displayed a half-inhibitory concentration (IC50) of 21000 nM.

`CCOC(=O)c1ccc2nc(/C=C/C=C\c3ccc(O)c(OC)c3)oc2c1` yielded a half-maximal inhibitory concentration (IC50) of 130 nM.

For `COC1(c2cc(F)cc(OCCc3c[nH]c4ccccc34)c2)CCOCC1`, the 50% inhibitory concentration (IC50) was 850 nM.

The molecule `NS(=O)(=O)c1ccc(C#Cc2ccc(=O)n(O)c2)cc1` had a half-inhibitory concentration (IC50) of 68000 nM.

In turn, `Cc1cccc(N2CCNC(=O)N2)c1` returned an IC50 of 15000 nM.

`O=C1NCCN(c2cccc([N+](=O)[O-])c2)N1`: the half-maximal inhibitory concentration (IC50) was determined as 49000 nM.

The molecule `O=C(O)/C=C/c1ccc(O)c(O)c1` [CAFFEIC ACID] yielded an IC50 of 4000 nM.

For the molecule `COC1(c2cc(F)cc(OCC3=NN(c4ccccc4)C(c4ccccc4)C3)c2)CCOCC1` (centres undefined), half-maximal inhibition (IC50) was put at 570 nM.

In turn, `COc1ccc(C(=O)/C=C/c2ccc(O)c(O)c2)c(OC)c1` had an IC50 of 40 nM.

`COC1(c2cc(F)cc(OCc3ccc4c(ccc(=O)n4C)c3)c2)CCOCC1` [ZD-2138]: the IC50 was 330 nM.

`CS(=O)(=O)c1ccc(C#Cc2ccc(=O)n(C(F)F)c2)cc1` had a 50% inhibitory concentration (IC50) of 3300 nM.

`Cc1ccc(-c2c(-c3ccc(S(C)(=O)=O)cc3)cn3c2CCC3)cc1`: inhibition was half-maximal at 10000 nM (IC50).

For `CS(=O)(=O)Nc1ccc([N+](=O)[O-])cc1OC1CCCCC1` [NS-398], half-maximal inhibition (IC50) was put at 10000 nM.

As for `CCOC(=O)c1c(Cc2ccc(OC)cc2)[nH]c2c1cc(O)c1ccccc12`, the half-maximal inhibitory concentration (IC50) was determined as 150 nM.

Molecule `CCN(C)C(=O)c1cc(C(C)(C)C)c2c(c1)C(C)(C)CO2` showed an IC50 of 22000 nM.
